Here are results for eight compounds from ChEMBL document CHEMBL5620408, “Discovery of novel diarypyrimidine derivatives bearing six-membered non-aromatic heterocycles as potent HIV-1 NNRTIs with improved anti-resistance and drug-like profiles” (Eur J Med Chem, 2023).

Calls of active or inactive are those of the source. No cut-off for these calls is given here. Where only a bound is given, the exact number is not on record here.

The nature of series [1]: Clearance in Sprague-Dawley rat at 2 mg/kg, iv. It is filed as ADME, organism-based. To be noted: in vivo.
Series [2] can be described thus: Cytotoxicity against human MT4 cells assessed as reduction in cell viability by MTT assay. Format: toxicity, cell-based. On the technique in general: Tetrazolium dyes change colour on reduction, which living cells bring about.
For series [3], the system named is Human immunodeficiency virus 1. The experiment in a line: Antiviral activity against HIV1 harboring Y188L mutant infected in MT4 cells. It is filed as functional, organism-based. To be noted: Human immunodeficiency virus 1, MT4.
The next series deals with Cytochrome P450 2C9 (Homo sapiens, UniProt P11712). Description: Inhibition of CYP2C9 (unknown origin). It is filed as ADME.
For series [4], the system named is Human immunodeficiency virus 1. Description: Antiviral activity against HIV1 harboring E138K mutant infected in MT4 cells. Format: functional, organism-based. The settings on record: Human immunodeficiency virus 1, MT4.
The nature of series [5]: Volume of distribution in Sprague-Dawley rat at 2 mg/kg, iv. To be noted: in vivo. Format: ADME, organism-based.
A short description of series [6]: Selectivity index, ratio of CC50 for human MT4 cells to EC50 for antiviral activity against HIV RES056.
The subject of series [7] is Human immunodeficiency virus 1. Description: Antiviral activity against HIV1 harboring K103N mutant infected in MT4 cells. Format: functional, organism-based. To be noted: Human immunodeficiency virus 1, MT4.
Series [8] deals with Human immunodeficiency virus 1. The experiment in a line: Potency index, ratio of efavirenz EC50 to test compound EC50 for antiviral activity against HIV1 harboring F227L/V106A double mutant. Format: functional.
Series [9] deals with Human immunodeficiency virus 1. The experiment in a line: Antiviral activity against HIV1 harboring Y181C mutant infected in MT4 cells. Format: functional, organism-based. The settings on record: Human immunodeficiency virus 1, MT4.
Series [10] is described as follows: Cmax in Sprague-Dawley rat at 2 mg/kg, iv. Format: ADME, organism-based. To be noted: in vivo.
Series [11] deals with Human immunodeficiency virus 1. Description: Potency index, ratio of efavirenz EC50 to test compound EC50 for antiviral activity against HIV1 harboring K103 N mutant. Format: functional.
The target of series [12] is Human immunodeficiency virus type 1 reverse transcriptase (Human immunodeficiency virus 1, UniProt Q72547). The experiment in a line: Inhibition of wild type HIV-1 reverse transcriptase.
The nature of series [13]: AUCt in Sprague-Dawley rat at 2 mg/kg, iv. The settings on record: in vivo. It is filed as ADME, organism-based.
The subject of series [14] is Human immunodeficiency virus 1. The experiment in a line: Potency index, ratio of (E)-3-[3,5-dimethyl-4-[2-[4-[(4-methylsulfonylpiperazin-1-yl)methyl]anilino]pyrimidin-4-yl]oxy-phenyl]prop-2-enenitrile EC50 to test compound EC50 for antiviral activity against HIV1 harboring F227L/V106A double mutant. It is filed as functional.
Series [15] relates to Human immunodeficiency virus 1. The experiment in a line: Potency index, ratio of zidovudine EC50 to test compound EC50 for antiviral activity against HIV1 IIIB. Format: functional.
The test system of series [16] is Human immunodeficiency virus 1. Description: microbe, parasite or virus in culture. The settings on record: Human immunodeficiency virus 1, RES056, MT4.
Description: (§1) Antiviral activity against HIV1 RES056 infected in MT-4 cells assessed as viral induced cytopathic effect by MTT assay
Series [17] relates to Human immunodeficiency virus 1. Description: Antiviral activity against HIV1 harboring L100I mutant infected in MT4 cells. It is filed as functional, organism-based. The settings on record: Human immunodeficiency virus 1, MT4.
Another series deals with Cytochrome P450 2D6 (Homo sapiens, UniProt P10635). Description: Inhibition of CYP2D6 (unknown origin). Format: ADME.
The nature of series [18]: AUCinfinity in Sprague-Dawley rat at 2 mg/kg, iv. The settings on record: in vivo. Format: ADME, organism-based.
For series [19], the system named is Human immunodeficiency virus 1. Description: microbe, parasite or virus in culture. The settings on record: Human immunodeficiency virus 1, IIIB, MT4.
Description: Antiviral activity against HIV1 IIIB infected in MT-4 cells assessed as viral induced cytopathic effect by MTT assay
The test system of series [20] is Human immunodeficiency virus 1. The experiment in a line: Potency index, ratio of etravirine EC50 to test compound EC50 for antiviral activity against HIV1 harboring E138K mutant. It is filed as functional.
A further series has as its target Cytochrome P450 3A4 (Homo sapiens, UniProt P08684). The experiment in a line: Inhibition of CYP3A4 (unknown origin). Format: ADME.
The test system of series [21] is Human immunodeficiency virus 1. The experiment in a line: Potency index, ratio of etravirine EC50 to test compound EC50 for antiviral activity against HIV1 harboring K103 N mutant. Format: functional.
The subject of series [22] is Human immunodeficiency virus 1. Description: Antiviral activity against HIV1 harboring F227L/V106A double mutant infected in MT4 cells. It is filed as functional, organism-based. To be noted: Human immunodeficiency virus 1, MT4.
A further series addresses Cytochrome P450 2C19 (Homo sapiens, UniProt P33261). Description: Inhibition of CYP2C19 (unknown origin). It is filed as ADME.
Series [23] concerns Human immunodeficiency virus 1. The experiment in a line: Potency index, ratio of (E)-3-[3,5-dimethyl-4-[2-[4-[(4-methylsulfonylpiperazin-1-yl)methyl]anilino]pyrimidin-4-yl]oxy-phenyl]prop-2-enenitrile EC50 to test compound EC50 for antiviral activity against HIV1 IIIB. It is filed as functional.
A short description of series [24]: Selectivity index, ratio of CC50 for human MT4 cells to EC50 for antiviral activity against HIV IIIB.
Series [25] concerns Human immunodeficiency virus 1. Description: Potency index, ratio of etravirine EC50 to test compound EC50 for antiviral activity against HIV1 IIIB. Format: functional.
The test system of series [26] is Human immunodeficiency virus 1. Description: Potency index, ratio of nevirapine EC50 to test compound EC50 for antiviral activity against HIV1 IIIB. It is filed as functional.
The subject of series [27] is Human immunodeficiency virus 1. Description: Potency index, ratio of (E)-3-[3,5-dimethyl-4-[2-[4-[(4-methylsulfonylpiperazin-1-yl)methyl]anilino]pyrimidin-4-yl]oxy-phenyl]prop-2-enenitrile EC50 to test compound EC50 for antiviral activity against HIV1 harboring K103 N mutant. Format: functional.
For series [28], the system named is Human immunodeficiency virus 1. Description: Potency index, ratio of efavirenz EC50 to test compound EC50 for antiviral activity against HIV1 IIIB. It is filed as functional.
In series [29] the test system is Human immunodeficiency virus 1. Description: Potency index, ratio of nevirapine EC50 to test compound EC50 for antiviral activity against HIV1 harboring K103 N mutant. It is filed as functional.
In another series the target is T1, Cytochrome P450 1A2 (Homo sapiens, UniProt P05177).
T1 sequence (P05177 whole entry): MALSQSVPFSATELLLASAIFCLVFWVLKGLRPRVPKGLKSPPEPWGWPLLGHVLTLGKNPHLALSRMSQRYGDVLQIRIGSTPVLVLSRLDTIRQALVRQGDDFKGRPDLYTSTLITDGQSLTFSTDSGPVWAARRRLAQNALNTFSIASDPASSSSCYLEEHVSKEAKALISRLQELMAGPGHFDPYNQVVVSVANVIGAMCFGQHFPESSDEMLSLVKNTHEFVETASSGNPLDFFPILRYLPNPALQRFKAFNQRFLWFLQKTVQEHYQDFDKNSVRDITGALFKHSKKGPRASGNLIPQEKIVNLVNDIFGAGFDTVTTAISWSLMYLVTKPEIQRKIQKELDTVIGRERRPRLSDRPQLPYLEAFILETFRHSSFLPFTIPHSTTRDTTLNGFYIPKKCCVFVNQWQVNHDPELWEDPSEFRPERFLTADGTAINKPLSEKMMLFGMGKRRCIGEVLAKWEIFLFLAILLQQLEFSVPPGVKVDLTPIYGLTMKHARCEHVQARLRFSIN
The experiment in a line: Inhibition of CYP1A2 (unknown origin). It is filed as ADME.

Series [30] in a line: Half life in Sprague-Dawley rat at 2 mg/kg, iv. To be noted: in vivo. It is filed as ADME, organism-based.
In series [31] the test system is Human immunodeficiency virus 1. The experiment in a line: Antiviral activity against HIV1 NL4-3 infected in MT4 cells. It is filed as functional, organism-based. To be noted: Human immunodeficiency virus 1, NL4-3, MT4.
In series [32] the test system is Human immunodeficiency virus 1. To be noted: RES056, MT4.
Description: as §1
In the next series the test system is MT4. Description: Cytotoxicity against human MT4 cells. Format: toxicity, cell-based.
The test system of series [33] is Human immunodeficiency virus 1. The experiment in a line: Antiviral activity against HIV1 NL4-3 infected in MT4 cells at 25 ng/ml. Format: functional, organism-based.

Chain of Cytochrome P450 3A4 (P08684 whole entry): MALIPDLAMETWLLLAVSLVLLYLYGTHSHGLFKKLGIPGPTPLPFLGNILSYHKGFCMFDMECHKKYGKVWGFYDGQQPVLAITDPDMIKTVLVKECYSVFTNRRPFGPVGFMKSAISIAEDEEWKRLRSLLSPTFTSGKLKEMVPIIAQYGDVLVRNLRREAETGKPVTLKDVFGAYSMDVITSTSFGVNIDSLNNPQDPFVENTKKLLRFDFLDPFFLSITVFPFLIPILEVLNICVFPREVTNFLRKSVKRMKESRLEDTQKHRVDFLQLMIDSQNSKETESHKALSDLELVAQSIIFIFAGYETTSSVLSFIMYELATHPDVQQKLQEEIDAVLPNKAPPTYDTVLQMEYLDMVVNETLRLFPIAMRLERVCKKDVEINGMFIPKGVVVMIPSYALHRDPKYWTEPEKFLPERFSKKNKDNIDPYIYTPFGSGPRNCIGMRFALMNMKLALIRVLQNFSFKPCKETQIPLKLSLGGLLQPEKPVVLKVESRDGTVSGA
Chain of Cytochrome P450 2D6 (P10635 whole entry): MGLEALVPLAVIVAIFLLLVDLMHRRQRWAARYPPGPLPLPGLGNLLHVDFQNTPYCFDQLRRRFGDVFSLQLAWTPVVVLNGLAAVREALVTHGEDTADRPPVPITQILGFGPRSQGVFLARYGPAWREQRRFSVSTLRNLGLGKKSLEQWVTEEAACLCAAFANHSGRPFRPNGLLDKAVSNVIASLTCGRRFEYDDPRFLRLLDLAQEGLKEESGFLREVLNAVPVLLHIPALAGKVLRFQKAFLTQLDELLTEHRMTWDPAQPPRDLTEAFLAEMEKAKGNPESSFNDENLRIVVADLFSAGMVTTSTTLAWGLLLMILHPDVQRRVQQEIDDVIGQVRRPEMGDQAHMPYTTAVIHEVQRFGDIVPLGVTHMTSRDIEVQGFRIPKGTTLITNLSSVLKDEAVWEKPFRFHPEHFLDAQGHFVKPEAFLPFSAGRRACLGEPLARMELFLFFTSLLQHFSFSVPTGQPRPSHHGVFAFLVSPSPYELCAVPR
Chain of Cytochrome P450 2C9 (P11712 whole entry): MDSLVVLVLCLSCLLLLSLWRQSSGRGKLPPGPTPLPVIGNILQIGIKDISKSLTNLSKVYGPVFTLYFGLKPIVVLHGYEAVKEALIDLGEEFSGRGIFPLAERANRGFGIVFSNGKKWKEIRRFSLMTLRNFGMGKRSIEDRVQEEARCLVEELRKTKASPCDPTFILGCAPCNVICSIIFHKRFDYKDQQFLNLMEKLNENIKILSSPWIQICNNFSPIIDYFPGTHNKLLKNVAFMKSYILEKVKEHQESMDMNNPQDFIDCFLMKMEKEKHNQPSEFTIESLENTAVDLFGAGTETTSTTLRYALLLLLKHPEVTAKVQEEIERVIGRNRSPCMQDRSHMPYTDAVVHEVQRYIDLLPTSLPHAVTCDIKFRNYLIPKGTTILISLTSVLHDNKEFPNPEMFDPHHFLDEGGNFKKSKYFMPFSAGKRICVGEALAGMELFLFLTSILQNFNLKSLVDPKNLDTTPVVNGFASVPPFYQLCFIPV
Chain of Cytochrome P450 2C19 (P33261 whole entry): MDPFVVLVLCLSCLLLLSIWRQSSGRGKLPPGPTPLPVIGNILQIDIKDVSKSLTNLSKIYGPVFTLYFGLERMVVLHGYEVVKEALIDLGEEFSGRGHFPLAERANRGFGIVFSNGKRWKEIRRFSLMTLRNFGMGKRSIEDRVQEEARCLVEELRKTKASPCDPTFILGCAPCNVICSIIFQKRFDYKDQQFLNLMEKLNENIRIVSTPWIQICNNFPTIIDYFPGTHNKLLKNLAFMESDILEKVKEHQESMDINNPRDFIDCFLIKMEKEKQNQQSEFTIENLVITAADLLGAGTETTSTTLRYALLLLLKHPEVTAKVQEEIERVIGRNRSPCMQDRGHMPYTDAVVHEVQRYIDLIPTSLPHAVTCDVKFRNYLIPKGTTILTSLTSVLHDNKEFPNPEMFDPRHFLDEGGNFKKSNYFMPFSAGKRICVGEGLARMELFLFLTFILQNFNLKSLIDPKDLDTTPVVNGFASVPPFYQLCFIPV

With `Cc1cc(/C=C/C#N)cc(C)c1Oc1ccnc(Nc2ccc(N3CCS(=O)(=O)CC3)c(F)c2)n1`, the clearance in [1] was 106 mL/min/kg. Moreover, the CC50 in [2] worked out at 15800 nM. Further, the EC50 was 1170 nM in series [3]; 6 nM in series [4]; 1 nM in series [7]; 8 nM in series [9]; 180 nM in [16]; 5 nM in series [17]. Besides, the EC50 in series [19] is 1 nM; in [22] it was 24 nM. Further, the half-maximal inhibitory concentration (IC50) was 5570 nM at Cytochrome P450 2C9; 23 nM in [12]; 14800 nM against Cytochrome P450 2D6; above 100000 nM against Cytochrome P450 3A4; 5280 nM against Cytochrome P450 2C19; 21200 nM at Cytochrome P450 1A2. The compound further gave a Vd in series [5] of 60.1 L/kg. Also, the values for the selectivity ratio in series [6] and in series [24] were 86 and 15500, respectively. Moreover, the “Ratio EC50” value in [8] turned out to be 10; in series [11], 10.9; in [14], 10; in [15], 32; in series [20], 3.1; in [21], 3.9. Moreover, the “Ratio EC50” value in series [23] worked out at 2.7; in series [25] it was 3.3; in [26], 190; in series [27], 3.4; in series [28], 3.7; in [29], 5490. In [10], the peak level (Cmax) was 390 ng/mL. This compound also had an AUC(0-t) in series [13] of 297 ng·h/mL. This compound also yielded an AUC(0-inf) in [18] of 316 ng·h/mL. Besides, the half-life in [30] is 6.59 h.

With `Cc1cc(/C=C/C#N)cc(C)c1Oc1ccnc(Nc2ccc(N3CCN(S(=O)(=O)C4CC4)CC3)c(F)c2)n1`, the CC50 in series [2] was 170000 nM. The EC50 was 5.67 nM in series [31] and 5 nM in series [19]. Further, the result in [32] was inactive. The compound also had an IC50 in series [12] of 100 nM. Besides, the Activity result in the series with MT4 was “Non-Toxic”. Moreover, in series [24], the selectivity ratio was determined as 32100.

In the case of `Cc1cc(C#N)cc(C)c1Oc1ccnc(Nc2ccc(N3CCN(S(=O)(=O)N(C)C)CC3)cc2)n1`, in the series on MT4, the Activity result is “Non-Toxic”. The result in [33] was inactive.

For `Cc1cc(C#N)cc(C)c1Oc1ccnc(Nc2ccc(N3CCN(S(=O)(=O)C(C)C)CC3)cc2)n1`, the Activity entry in the series with MT4 is on record as “Non-Toxic”. Further, in series [33], the result was inactive.

In the case of `Cc1cc(C#N)cc(C)c1Oc1ccnc(Nc2ccc(N3CCN(S(=O)(=O)N(C)C)CC3)c(F)c2)n1`, the CC50 in series [2] was 186000 nM. For the same compound, the midpoint of inhibition in [12], the IC50, lay at 150 nM. For the same compound, the figures for the EC50 in series [16] and in [19] were above 186000 nM and 18 nM, respectively. Also, the Activity result in the series with MT4 is recorded as “Non-Toxic”. The selectivity ratio in [24] was found to be 10300. Besides, in series [33], the result was inactive.

`CCS(=O)(=O)N1CCC(c2ccc(Nc3nccc(Oc4c(C)cc(C#N)cc4C)n3)cc2)CC1`: the Activity result with MT4 is recorded as “Non-Toxic”. The outcome in series [33] was inactive.

`Cc1cc(C#N)cc(C)c1Oc1ccnc(Nc2ccc(N3CCN(S(=O)(=O)C4CC4)CC3)cc2)n1`: the Activity entry in the series on MT4 is listed as “Non-Toxic”. Further, the result in series [33] was inactive.

Consider `Cc1cc(C#N)cc(C)c1Oc1ccnc(Nc2ccc(C3CCN(S(=O)(=O)C4CC4)CC3)cc2)n1`, for which the Activity result in the series on MT4 is on record as “Non-Toxic”. The outcome in series [33] was inactive.

The clearance is the volume of plasma or blood freed of the substance per unit of time. A lower clearance goes with a low capacity for elimination. For orientation: CC50 means the concentration giving 50% cytotoxicity. As a reminder, the EC50 is the concentration needed to bring the measured effect to its halfway point. Usually IC50 stands for the concentration needed to halve the response being measured. The low end stands for inhibition by little substance, the high end for a need for much substance. The Vd is the apparent volume that relates the amount in the body to the concentration in plasma or blood. By Cmax is commonly meant the peak of the concentration-time curve. As usually defined, the AUC(0-t) is the area under the concentration-time curve up to a stated or last time point. The low end stands for low exposure, the high end for high exposure. By AUC(0-inf) is commonly meant total exposure, with the tail of the curve extrapolated. A low value points to low exposure. Usually half-life stands for how long it takes for the measured level to halve. The low end stands for fast loss, the high end for slow loss.
